# pIC50: −log10 of the molar value.
# Key:
# COX = COX inhibition; type: biochemical
# cGMP-PDE = cGMP-PDE inhibition assay, enzyme from HT-29 cultured tumor cells; type: biochemical, human; details: for cGMP PDE % Inhibition at 100 μM: 100 μM (test compounds)
# [1] = system: HT-29 colon adenocarcinoma cells; assay: Apoptosis by DNA fragmentation assay in HT-29 cells; type: cell-based, human
# HT-29 cells [2] = assay: HT-29 tumor cell growth inhibition, SRB assay; type: cell-based, human; set-up: Growth Inhibition: key to the marks not given beside the values; details: for Growth inhibitory activity % Inhibition at 100 μM: 100 μM single dose
# [3] = system: premalignant lesions in mouse mammary gland organ culture; assay: Mammary gland organ culture model, DMBA-induced premalignant lesions; details: for inhibition of formation of premalignant lesions: mammary gland organ culture
# Description: For example, female BALB/c mice can be treated with a combination of estradiol and progesterone daily, in order to prime the glands to be responsive to hormones in vitro. The animals are sacrificed and thoracic mammary glands are excised aseptically and incubated for ten days in growth media supplemented with insulin, prolactin, hydrocortisone, and aldosterone. DMBA (7,12-dimethylbenz(a)anthracene) is added to medium to induce the formation of premalignant lesions. Fully developed lands are then deprived of prolactin, hydrocortisone, and aldosterone, resulting in the regression of the glands but not the pre malignant lesions.
# The test compound is dissolved in DMSO and added to the culture media for the duration of the culture period. At the end of the culture period, the glands are fixed in 10% formalin, stained with alum carmine, and mounted on glass slides. The extent of the area occupied by the mammary lesions can be quantitated by projecting an image of the gland onto a digitation pad. The area covered by the gland is traced on the pad and considered as 100% of the area. The space covered by each of the unregressed structures is also outlined on the digitization pad and quantitated by the computer.
# The incidence of forming mammary lesions is the ratio of the glands with mammary lesions to […]. The incidence of mammary lesions in test compound treated glands is compared with that of the untreated glands.
# Mammary gland organ culture experiments were performed as previously described (Mehta and Moon, Cancer Research, 46: 5832-5835, 1986). […] The data support the hypothesis that cyclooxygenase inhibition is not necessary for the anti-neoplastic properties of desired compounds.
# [4] = system: PDE peak B (novel cGMP-PDE); assay: cGMP hydrolysis by PDE peak B isolated from SW-480 cells; type: biochemical, human
# PDE peak A (PDE5) = molecular target: T1, PDE peak A (PDE5) (Homo sapiens, UniProt O76074); assay: cGMP hydrolysis by PDE peak A isolated from SW-480 cells; type: biochemical
# T1 construct: SW-480 cells are collected and homogenized; The homogenate is centrifuged, and the supernatant is loaded onto a DEAE-Trisacryl M column; endogenous in cells; host or cells: SW-480 human colon adenocarcinoma cells (DEAE-Trisacryl M fraction, peak A)
# [5] = reversible; cited from earlier work
# HT-29 cells [6] = assay: Cyclic nucleotide (cGMP, cAMP) levels in HT-29 cells by radioimmunoassay; type: cell-based, human; details: HT-29 cells treated 30 minutes
# Description: The amount of PDE activity can be determined by assaying for the amount of cyclic GMP in the extract of treated cells using a radioimmunoassay (RIA). In this procedure, a neoplastic cell line is incubated with a test compound. […]
# It has been observed that a compound which is useful in the practice of this invention (i.e.. one that selectively induces apoptosis in neoplastic cells, but not substantially in normal cells) follows a time course consistent with cGMP-specific PDE inhibition. […] The intracellular targets of these drug actions are being studied further, but current data support the concert that the initial rise in cGMP content and the subsequent fall in cGMP content precede apoptosis in neoplastic cells exposed to test compounds useful in this invention. To determine the cyclic AMP content in cell extracts, radioimmunoassay techniques similar to those described above for cGMP are used.
# HT-29 cells [7] = assay: Apoptosis and necrosis by morphology (acridine orange/ethidium bromide) in HT-29 cells; type: cell-based, human; details: 120 μM, time course
# Description: Growth inhibition (FIG. 9A, top) was measured by counting viable cells after trypan blue staining. Apoptosis (FIG. 9B, bottom) was measured by morphological determination following staining with acridine orange and ethidium bromide as described previously and Cohen, In: Current Protocols in Immunology, 3.17.1-3.17.16 New York, John Wiley and Sons, 1992). […] All data were collected from the same experiment.
# Following treatment with a test compound, cultures can be assayed for apoptosis and necrosis by fluorescent microscopy following labeling with acridine orange and ethidium bromide. […]
# Reference compounds and test compounds were analyzed for their cGMP-specific PDE inhibitory activity in accordance with the protocols for the assay, supra. […] Apoptotic and necrotic cell death was determined as previously described (Duke and Cohen, In: Current Protocols in Immunology, 3.17.1-3.17.16, New York. John Wiley and Sons, 1992). […]
# The apoptosis inducing activity for a series of phosphodiesterase inhibitors was determined. […] Apoptosis and necrosis were determined morphologically after acridine orange and ethidium bromide labeling in accordance with the assay described supra.
smiles,measurement,setting,value
"CCN(CC)CCSC12CC(=O)OC1(C)/C(=C/c1ccc(S(C)(=O)=O)cc1)c1ccc(F)cc12 (racemic) [A, rac-threo-(E)-1-(N,N′-diethylaminoethanethio)-1-(butan-1′,4′-olido)-[3′,4′:1,2]-6-fluoro-2-methyl-3-(p-methylsulfonylbenzylidene)-indan]",COX Inhibition,COX; activity profile,−
same,cGMP PDE % Inhibition at 100 μM,cGMP-PDE,<25%
same,"Apoptosis inducing activity, Fold induction at 100 μM",[1]; 100 μM,<2.0 fold
same,Growth inhibitory activity % Inhibition at 100 μM,HT-29 cells [2],68%
"CC(=O)N[C@@H](CSC12CC(=O)OC1(C)/C(=C/c1ccc(S(C)(=O)=O)cc1)c1ccc(F)cc12)C(=O)O (mixture of isomers) [D, rac-(E)-1-(butan-1′,4′-olide)-[3′,4′:1,2]-6-fluoro-2-methyl-3-(p-methylsulfonylbenzylidene)-1S-indanyl-N-acetylcysteine]",COX Inhibition,COX; activity profile,−
same,PDE Inhibition,cGMP-PDE; activity profile,−
same,Apoptosis,[1]; activity profile,−
same,Growth inhibitory activity % Inhibition at 100 μM,HT-29 cells [2],78%
same,Growth Inhibition,HT-29 cells [2]; activity profile,++
same,Mammary Gland Organ Culture,[3]; activity profile,−
"CC1=C(CC(=O)O)c2cc(F)ccc2/C1=C\c1ccc(Cl)cc1 [C, (Z)-5-Fluoro-2-methyl-1-(p-chlorobenzylidene)-3-acetic acid]",Growth inhibitory activity % Inhibition at 100 μM,HT-29 cells [2],80%
"COc1cc(C=C2C(C)=C(CC(=O)O)c3cc(F)ccc32)cc(OC)c1OC [Compound B, (Z)-5-Fluoro-2-methyl-1-(3,4,5-trimethoxybenzylidene)-3-acetic acid]",COX Inhibition,COX; 100 μM,did not inhibit COX
same,COX Inhibition,COX; activity profile,−
same,cGMP PDE % Inhibition at 100 μM,cGMP-PDE,<25%
O=C([O-])C1CCN(c2nc(NCc3ccc4c(c3)OCO4)c3cc(Cl)ccc3n2)CC1.[Na+] [Compound E4021],apoptosis induction in neoplastic cells,[1],do not have significant apoptosis-inducing
same,sensitivity of the new cGMP-PDE (peak B) to inhibition,[4],relatively insensitive
same,growth inhibition of neoplastic cells,HT-29 cells [2],do not have significant apoptosis-inducing (Table 6) or growth-inhibiting
same,Growth inhibitory activity % Inhibition at 100 μM,HT-29 cells [2],<50%
"COc1cc(/C=C2/C(C)=C(CC(=O)NCc3ccccc3)c3cc(F)ccc32)cc(OC)c1OC [Compound E, (Z)-5-Fluoro-2-methyl-1-(3,4,5-trimethoxybenzylidene)-3-indenylacetamide, N-benzyl]",apoptosis induction in neoplastic cells,[1],induce apoptosis in neoplastic cells
"CC1=C(CC(=O)O)c2cc(F)ccc2/C1=C\c1ccc(S(C)(=O)=O)cc1 [Exisulind, (Z)-5-fluoro-2-methyl-1-[[4-(methylsulfonyl)phenyl]methylene]indene-3-yl acetic acid]",sensitivity of the new cGMP-PDE (peak B) to inhibition,[4],inhibits both PDES and the new cGMP-PDE
same,inhibition of peak A / PDE5 activity,PDE peak A (PDE5),inhibits both PDES and the new cGMP-PDE
same,side effects at doses higher than the recommended therapeutic levels,[5],elevated levels of liver enzymes
same,inhibition of formation of premalignant lesions,[3],effectively inhibit the formation of premalignant lesions
CC1(C)C(=O)Nc2ccc(C3=NNC(=O)CC3)cc21 [Indolidan],sensitivity of the new cGMP-PDE (peak B) to inhibition,[4],relatively insensitive
COc1ccc(C2CNC(=O)C2)cc1OC1CCCC1 (centres unmarked) [Rolipram],sensitivity of the new cGMP-PDE (peak B) to inhibition,[4],relatively insensitive
CCCc1nn(C)c2c(=O)[nH]c(-c3cc(S(=O)(=O)N4CCN(C)CC4)ccc3OCC)nc12 [Sildenafil],apoptosis induction in neoplastic cells,[1],do not have significant apoptosis-inducing
same,growth inhibition of neoplastic cells,HT-29 cells [2],do not have significant apoptosis-inducing (Table 6) or growth-inhibiting
same,inhibition of peak A / PDE5 activity,PDE peak A (PDE5),inhibited activity of peak A
CSc1ccc(/C=C2/C(C)=C(CC(=O)O)c3cc(F)ccc32)cc1 [Sulindac sulfide],apoptosis induction in neoplastic cells,[1],induce apoptosis in neoplastic cells
same,increase in levels of cGMP,HT-29 cells [6],greater than 50%
same,pIC50,"HT-29 cells [6]; Homo sapiens, 0.5 h, read-out: IC50 value for increase of cGMP levels",5.14
same,"apoptosis, morphological determination",HT-29 cells [7],an increase in apoptosis
same,inhibition of formation of premalignant lesions,[3],inactive
CCOC(=O)C1=C[C@]2(CC)CCCN3CCc4c(n1c1ccccc41)[C@@H]32 [Vinpocetine],sensitivity of the new cGMP-PDE (peak B) to inhibition,[4],relatively insensitive
CCCOc1ccccc1-c1nc2nn[nH]c2c(=O)[nH]1 [Zaprinast],apoptosis induction in neoplastic cells,[1],do not have significant apoptosis-inducing
same,sensitivity of the new cGMP-PDE (peak B) to inhibition,[4],relatively insensitive
same,growth inhibition of neoplastic cells,HT-29 cells [2],do not have significant apoptosis-inducing (Table 6) or growth-inhibiting
CC1=C(CC(=O)O)c2cc(F)ccc2/C1=C/c1ccc([S+](C)[O-])cc1 (centres unmarked) [sulindac sulfoxide],inhibition of formation of premalignant lesions,[3],effectively inhibit the formation of premalignant lesions

# — patent US20020137722A1, “Method for treating a patient with neoplasia by treatment with a paclitaxel derivative” (priority 1998, published 2002)
